Measured values published in ChEMBL document CHEMBL1909046, “DrugMatrix in vitro pharmacology data”.

Tests used:
Cytochrome P450 1A2 = target: T1, Cytochrome P450 1A2 (Homo sapiens, UniProt P05177); conditions: bti-tn-5b1-4; further: in other assays of this panel Not Active means under 50% inhibition at 10 µM
T1 sequence (P05177 whole entry): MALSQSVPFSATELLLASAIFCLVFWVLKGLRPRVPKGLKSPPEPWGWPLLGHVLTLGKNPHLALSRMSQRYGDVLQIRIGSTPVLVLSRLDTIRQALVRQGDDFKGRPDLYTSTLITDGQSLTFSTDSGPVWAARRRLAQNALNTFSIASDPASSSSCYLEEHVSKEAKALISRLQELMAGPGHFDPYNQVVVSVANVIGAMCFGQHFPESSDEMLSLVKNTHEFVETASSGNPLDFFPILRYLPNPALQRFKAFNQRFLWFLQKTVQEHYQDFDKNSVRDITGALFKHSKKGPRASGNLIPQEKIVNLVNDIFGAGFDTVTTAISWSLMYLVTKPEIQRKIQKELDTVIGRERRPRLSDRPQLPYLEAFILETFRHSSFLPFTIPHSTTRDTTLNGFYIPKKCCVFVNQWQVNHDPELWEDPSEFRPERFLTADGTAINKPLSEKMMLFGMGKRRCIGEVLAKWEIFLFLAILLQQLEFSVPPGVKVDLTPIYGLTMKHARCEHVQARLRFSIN

Thromboxane-A synthase = target: T2, Thromboxane-A synthase (Homo sapiens, UniProt P24557); experiment: biochemical; format: tissue-based, Platelet;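 further: enzyme inhibition assay with PGH2 supplied as substrate; in other assays of this panel Not Active means under 50% inhibition at 10 µM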
T2 sequence (P24557 whole entry): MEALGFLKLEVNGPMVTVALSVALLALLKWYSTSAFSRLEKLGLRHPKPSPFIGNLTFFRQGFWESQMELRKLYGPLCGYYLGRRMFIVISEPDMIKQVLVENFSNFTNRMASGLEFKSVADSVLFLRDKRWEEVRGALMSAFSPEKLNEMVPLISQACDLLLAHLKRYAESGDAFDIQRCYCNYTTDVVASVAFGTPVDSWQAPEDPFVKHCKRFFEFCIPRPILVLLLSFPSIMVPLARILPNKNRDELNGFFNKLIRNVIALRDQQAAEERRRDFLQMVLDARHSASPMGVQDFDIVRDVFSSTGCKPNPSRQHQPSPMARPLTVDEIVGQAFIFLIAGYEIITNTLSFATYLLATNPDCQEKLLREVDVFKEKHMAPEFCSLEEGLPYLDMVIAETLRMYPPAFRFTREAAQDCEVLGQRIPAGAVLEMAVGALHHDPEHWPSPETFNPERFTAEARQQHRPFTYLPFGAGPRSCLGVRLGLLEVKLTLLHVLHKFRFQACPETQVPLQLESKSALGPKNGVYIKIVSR

[1] = target: T3, Cholecystokinin receptor type A (Homo sapiens, UniProt P32238); format: cell membranes, Membrane; conditions: 1321-n1; further: in other assays of this panel Not Active means under 50% inhibition at 10 µM
T3 sequence (P32238 whole entry): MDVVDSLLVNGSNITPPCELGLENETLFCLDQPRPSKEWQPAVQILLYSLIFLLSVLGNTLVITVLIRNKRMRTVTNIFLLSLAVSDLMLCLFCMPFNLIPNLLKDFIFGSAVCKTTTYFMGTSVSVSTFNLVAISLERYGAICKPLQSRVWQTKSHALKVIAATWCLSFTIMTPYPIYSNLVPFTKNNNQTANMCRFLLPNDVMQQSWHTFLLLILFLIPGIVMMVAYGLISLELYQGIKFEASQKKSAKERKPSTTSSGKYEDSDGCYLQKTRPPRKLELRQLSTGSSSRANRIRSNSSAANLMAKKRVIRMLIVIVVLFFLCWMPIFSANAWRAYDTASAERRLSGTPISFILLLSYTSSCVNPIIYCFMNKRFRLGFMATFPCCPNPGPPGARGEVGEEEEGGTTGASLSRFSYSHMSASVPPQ

B2 bradykinin receptor = target: T4, B2 bradykinin receptor (Homo sapiens, UniProt P30411); format: cell membranes, Membrane; conditions: chem-1; further: in other assays of this panel Not Active means under 50% inhibition at 10 µM
T4 sequence (P30411 whole entry): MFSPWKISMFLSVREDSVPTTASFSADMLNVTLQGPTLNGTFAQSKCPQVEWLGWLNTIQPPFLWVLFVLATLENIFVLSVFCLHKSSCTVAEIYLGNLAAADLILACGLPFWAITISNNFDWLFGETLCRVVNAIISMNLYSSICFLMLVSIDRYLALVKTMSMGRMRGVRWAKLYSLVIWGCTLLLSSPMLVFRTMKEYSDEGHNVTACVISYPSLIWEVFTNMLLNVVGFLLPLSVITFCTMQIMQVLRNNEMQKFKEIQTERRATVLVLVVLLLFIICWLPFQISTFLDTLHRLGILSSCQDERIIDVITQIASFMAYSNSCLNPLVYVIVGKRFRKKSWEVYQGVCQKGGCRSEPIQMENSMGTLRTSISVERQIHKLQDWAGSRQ

Neutrophil elastase = target: T5, Neutrophil elastase (Homo sapiens, UniProt P08246); format: tissue-based
T5 sequence (P08246 whole entry): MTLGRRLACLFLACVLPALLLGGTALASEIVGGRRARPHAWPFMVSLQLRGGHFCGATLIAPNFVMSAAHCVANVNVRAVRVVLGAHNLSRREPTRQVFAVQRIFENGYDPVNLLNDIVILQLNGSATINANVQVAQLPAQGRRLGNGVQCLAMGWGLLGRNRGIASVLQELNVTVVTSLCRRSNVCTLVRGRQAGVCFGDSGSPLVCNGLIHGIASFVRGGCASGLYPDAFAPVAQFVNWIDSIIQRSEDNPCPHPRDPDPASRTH

[2] = target: Beta-2 adrenergic receptor (Homo sapiens, UniProt P07550); experiment: DRUGMATRIX: Adrenergic beta2 radioligand binding (ligand: [3H] CGP-12177); format: cell membranes, CHO, Membrane; conditions: cho; Not Active = under 50% inhibition at 10 µM
Beta-2 adrenergic receptor, sequence (P07550 whole entry): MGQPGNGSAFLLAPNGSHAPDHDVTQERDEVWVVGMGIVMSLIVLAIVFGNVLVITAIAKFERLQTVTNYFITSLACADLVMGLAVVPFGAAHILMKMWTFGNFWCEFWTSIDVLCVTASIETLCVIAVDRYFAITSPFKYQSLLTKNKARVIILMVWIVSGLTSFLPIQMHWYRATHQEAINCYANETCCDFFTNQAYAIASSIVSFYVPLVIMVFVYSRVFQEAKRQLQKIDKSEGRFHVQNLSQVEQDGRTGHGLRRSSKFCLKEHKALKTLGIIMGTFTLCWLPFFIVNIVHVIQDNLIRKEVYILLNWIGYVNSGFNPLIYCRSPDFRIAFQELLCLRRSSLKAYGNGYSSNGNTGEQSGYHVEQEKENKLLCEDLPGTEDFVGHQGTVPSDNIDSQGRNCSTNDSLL

Leukotriene C4 synthase = target: T6, Leukotriene C4 synthase (Cavia porcellus, UniProt A6XA80); format: tissue-based, Lung
T6 sequence (A6XA80 whole entry): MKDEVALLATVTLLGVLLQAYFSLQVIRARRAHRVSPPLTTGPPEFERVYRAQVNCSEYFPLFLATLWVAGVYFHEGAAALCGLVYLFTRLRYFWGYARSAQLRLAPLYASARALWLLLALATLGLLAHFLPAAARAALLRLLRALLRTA

Structure (SMILES) | IC50 (Cytochrome P450 1A2) | Ki (Cytochrome P450 1A2) | IC50 (Thromboxane-A synthase; platelet) | IC50 [1] | IC50 (B2 bradykinin receptor) | IC50 (Neutrophil elastase) | IC50 [2] | IC50 (Leukotriene C4 synthase) | IC50 (Thromboxane-A synthase; read-out: IC50)
O=C(c1ccccc1C(F)(F)F)N1CCC(Cc2ccccc2)CC1 | Not Active | Not Active | Not Active | Not Active | Not Active | Not Active | Not Active | Not Active | –
O=C/C=C/c1ccccc1 | Not Active | Not Active | Not Active | Not Active | Not Active | Not Active | Not Active | Not Active | –
Nc1ccc2c3c(cccc13)C(=O)NC2=O | Not Active | Not Active | Not Active | Not Active | Not Active | Not Active | Not Active | Not Active | –
COc1ccc(C(=O)N2CCCC2=O)cc1 | Not Active | Not Active | Not Active | Not Active | Not Active | Not Active | Not Active | Not Active | –
O=c1cnn([C@@H]2O[C@H](CO)[C@@H](O)[C@H]2O)c(=O)[nH]1 [6-AZAURIDINE] | Not Active | Not Active | Not Active | Not Active | Not Active | Not Active | Not Active | Not Active | –
CC[C@H](C)[C@H]1O[C@]2(C=C[C@@H]1C)C[C@@H]1C[C@@H](C/C=C(\C)[C@@H](O[C@H]3C[C@H](OC)[C@@H](O[C@H]4C[C@H](OC)[C@@H](O)[C@H](C)O4)[C@H](C)O3)[C@@H](C)/C=C/C=C3\CO[C@@H]4[C@H](O)C(C)=C[C@@H](C(=O)O1)[C@]34O)O2.CO[C@H]1C[C@H](O[C@H]2[C@H](C)O[C@@H](O[C@@H]3/C(C)=C/C[C@@H]4C[C@@H](C[C@]5(C=C[C@H](C)[C@@H](C(C)C)O5)O4)OC(=O)[C@@H]4C=C(C)[C@@H](O)[C@H]5OC/C(=C\C=C\[C@@H]3C)[C@]54O)C[C@@H]2OC)O[C@@H](C)[C@@H]1O [ABAMECTIN] | Not Active | Not Active | Not Active | Not Active | Not Active | Not Active | Not Active | Not Active | –
NCCCC(O)(P(=O)(O)O)P(=O)(O)O [ALENDRONIC ACID] | – | – | Not Active | Not Active | Not Active | Not Active | Not Active | Not Active | –
Cc1nnc2n1-c1ccc(Cl)cc1C(c1ccccc1)=NC2 [ALPRAZOLAM] | Not Active | Not Active | Not Active | Not Active | Not Active | Not Active | Not Active | Not Active | –
Cn1c(=O)c2[nH]cnc2n(C)c1=O.Cn1c(=O)c2[nH]cnc2n(C)c1=O.NCCN [AMINOPHYLLINE] | Not Active | Not Active | Not Active | Not Active | Not Active | Not Active | Not Active | Not Active | –
CN1[C@@H]2CC[C@H]1C[C@@H](OC(=O)C(CO)c1ccccc1)C2 (stereo partly drawn) [ATROPINE] | – | – | Not Active | Not Active | Not Active | Not Active | Not Active | Not Active | –
C[C@@H](CO)NC(=O)[C@@H]1C=C2c3cccc4[nH]cc(c34)C[C@H]2N(C)C1 [ERGONOVINE] | Not Active | Not Active | Not Active | – | Not Active | Not Active | Not Active | Not Active | –
COc1cc([C@@H]2c3cc4c(cc3[C@@H](O[C@@H]3O[C@@H]5CO[C@@H](C)O[C@H]5[C@H](O)[C@H]3O)[C@H]3COC(=O)[C@H]23)OCO4)cc(OC)c1O [ETOPOSIDE] | – | – | Not Active | Not Active | Not Active | Not Active | Not Active | Not Active | –
COc1ccc2c3c1O[C@H]1C[C@@H](O)C=C[C@@]31CCN(C)C2 [GALANTAMINE] | – | – | Not Active | Not Active | Not Active | Not Active | Not Active | Not Active | –
CC(C)=CCC/C(C)=C/CO [GERANIOL] | – | – | Not Active | Not Active | Not Active | Not Active | Not Active | Not Active | –
Oc1c(Cl)cc(Cl)c(Cl)c1Cc1c(O)c(Cl)cc(Cl)c1Cl [HEXACHLOROPHENE] | – | – | – | Not Active | Not Active | Not Active | Not Active | Not Active | 3.09 µM
CC(=O)[C@@]1(O)CC[C@H]2[C@@H]3CCC4=CC(=O)CC[C@]4(C)[C@H]3CC[C@@]21C [HYDROXYPROGESTERONE] | – | – | Not Active | Not Active | Not Active | Not Active | Not Active | Not Active | –
O=c1cc(N2CCOCC2)oc2c(-c3ccccc3)cccc12 [LY-294002] | – | – | Not Active | Not Active | Not Active | Not Active | Not Active | Not Active | –
CC(=O)O[C@H]1C(=O)[C@@]2(C)[C@H]([C@H](OC(=O)c3ccccc3)[C@]3(O)C[C@H](OC(=O)[C@H](O)[C@@H](NC(=O)c4ccccc4)c4ccccc4)C(C)=C1C3(C)C)[C@]1(OC(C)=O)CO[C@@H]1C[C@@H]2O [PACLITAXEL] | Not Active | Not Active | Not Active | – | Not Active | Not Active | Not Active | Not Active | –
CC(C)NCC(O)COc1cccc2[nH]ccc12 (stereo not drawn) [PINDOLOL] | – | – | Not Active | Not Active | Not Active | Not Active | – | Not Active | –
CCn1cc(C(=O)O)c(=O)c2cnc(N3CCCC3)nc21 [PIROMIDIC ACID] | – | – | Not Active | Not Active | Not Active | Not Active | Not Active | Not Active | –
CCCNCC(O)COc1ccccc1C(=O)CCc1ccccc1 (stereo not drawn) [PROPAFENONE] | – | – | Not Active | Not Active | Not Active | Not Active | – | Not Active | –
CC(C)c1cccc(C(C)C)c1O [PROPOFOL] | – | – | Not Active | Not Active | Not Active | Not Active | Not Active | Not Active | –
